Results as given in PubChem BioAssay (NCI).
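How tested: cells in 96-well plates exposed to compound for 48 hours at five concentrations. The concentration for full growth arrest is given as TGI.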

Legend:
Test in all cases: NCI tumour cell line growth inhibition, 48 h
A498 renal = test system: A498 renal
A549 NSCLC = test system: A549 NSCLC
ACHN renal = test system: ACHN renal
BT-549 breast = test system: BT-549 breast
CAKI-1 renal = test system: CAKI-1 renal
CCRF-CEM leukemia = test system: CCRF-CEM leukemia
COLO 205 colon = test system: COLO 205 colon
DU-145 prostate = test system: DU-145 prostate
EKVX NSCLC = test system: EKVX NSCLC
HCC-2998 colon = test system: HCC-2998 colon
HCT-116 colon = test system: HCT-116 colon
HCT-15 colon = test system: HCT-15 colon
HL-60(TB) leukemia = test system: HL-60(TB) leukemia
HOP-62 NSCLC = test system: HOP-62 NSCLC
HOP-92 NSCLC = test system: HOP-92 NSCLC
HS 578T breast = test system: HS 578T breast
HT29 colon = test system: HT29 colon
IGROV1 ovarian = test system: IGROV1 ovarian
K-562 leukemia = test system: K-562 leukemia
KM12 colon = test system: KM12 colon
LOX IMVI melanoma = test system: LOX IMVI melanoma
M14 melanoma = test system: M14 melanoma
MALME-3M melanoma = test system: MALME-3M melanoma
MCF7 breast = test system: MCF7 breast
MDA-MB-231 breast = test system: MDA-MB-231 breast
MDA-MB-435 = test system: MDA-MB-435
MDA-N = test system: MDA-N
MOLT-4 leukemia = test system: MOLT-4 leukemia
NCI-H226 lung = test system: NCI-H226 lung
NCI-H23 lung = test system: NCI-H23 lung
NCI-H460 lung = test system: NCI-H460 lung
NCI-H522 lung = test system: NCI-H522 lung
NCI/ADR-RES ovarian = test system: NCI/ADR-RES ovarian
OVCAR-3 ovarian = test system: OVCAR-3 ovarian
OVCAR-4 ovarian = test system: OVCAR-4 ovarian
OVCAR-5 ovarian = test system: OVCAR-5 ovarian
OVCAR-8 ovarian = test system: OVCAR-8 ovarian
PC-3 prostate = test system: PC-3 prostate
RPMI-8226 leukemia = test system: RPMI-8226 leukemia
RXF 393 renal = test system: RXF 393 renal
SF-268 CNS = test system: SF-268 CNS
SF-295 CNS = test system: SF-295 CNS
SF-539 CNS = test system: SF-539 CNS
SK-MEL-2 melanoma = test system: SK-MEL-2 melanoma
SK-MEL-28 melanoma = test system: SK-MEL-28 melanoma
SK-MEL-5 melanoma = test system: SK-MEL-5 melanoma
SK-OV-3 ovarian = test system: SK-OV-3 ovarian
SN12C renal = test system: SN12C renal
SNB-19 CNS = test system: SNB-19 CNS
SNB-75 CNS = test system: SNB-75 CNS
SR leukemia = test system: SR leukemia
SW-620 colon = test system: SW-620 colon
T-47D breast = test system: T-47D breast
TK-10 renal = test system: TK-10 renal
UACC-257 melanoma = test system: UACC-257 melanoma
UACC-62 melanoma = test system: UACC-62 melanoma
UO-31 renal = test system: UO-31 renal
786-0 renal = test system: 786-0 renal
U251 CNS = test system: U251 CNS

## Cc1ccc([N+](=O)[O-])cc1S(=O)(=O)Nc1ccc(C2=NNC(c3ccccc3O)C2)cc1 (stereo not given)
A498 renal
  TGI: 79.3 µM
A549 NSCLC
  TGI: > 100 µM
ACHN renal
  TGI: 77 µM
BT-549 breast
  TGI: 63.5 µM
CAKI-1 renal
  TGI: > 100 µM
CCRF-CEM leukemia
  TGI: > 100 µM
COLO 205 colon
  TGI: 65.5 µM
DU-145 prostate
  TGI: > 100 µM
EKVX NSCLC
  TGI: 56.9 µM
HCC-2998 colon
  TGI: > 100 µM
HCT-116 colon
  TGI: 60.8 µM
HCT-15 colon
  TGI: 97.6 µM
HL-60(TB) leukemia
  TGI: 61.8 µM
HOP-62 NSCLC
  TGI: 57.7 µM
HOP-92 NSCLC
  TGI: > 100 µM
HS 578T breast
  TGI: > 100 µM
HT29 colon
  TGI: > 100 µM
IGROV1 ovarian
  TGI: > 100 µM
K-562 leukemia
  TGI: > 100 µM
KM12 colon
  TGI: 76.7 µM
LOX IMVI melanoma
  TGI: > 100 µM
M14 melanoma
  TGI: 51.6 µM
MALME-3M melanoma
  TGI: 96.3 µM
MCF7 breast
  TGI: 64.7 µM
MDA-MB-231 breast
  TGI: > 100 µM
MDA-MB-435
  TGI: 50.6 µM
MDA-N
  TGI: 93.5 µM
MOLT-4 leukemia
  TGI: 96.3 µM
NCI-H226 lung
  TGI: > 100 µM
NCI-H23 lung
  TGI: 67.7 µM
NCI-H460 lung
  TGI: 80.6 µM
NCI-H522 lung
  TGI: > 100 µM
NCI/ADR-RES ovarian
  TGI: 81 µM
OVCAR-3 ovarian
  TGI: 43.7 µM
OVCAR-4 ovarian
  TGI: 63.8 µM
OVCAR-5 ovarian
  TGI: > 100 µM
OVCAR-8 ovarian
  TGI: > 100 µM
PC-3 prostate
  TGI: > 100 µM
RPMI-8226 leukemia
  TGI: > 100 µM
RXF 393 renal
  TGI: 40.5 µM
SF-268 CNS
  TGI: > 100 µM
SF-295 CNS
  TGI: 90.9 µM
SF-539 CNS
  TGI: > 100 µM
SK-MEL-2 melanoma
  TGI: 65.6 µM
SK-MEL-28 melanoma
  TGI: > 100 µM
SK-MEL-5 melanoma
  TGI: 58.6 µM
SK-OV-3 ovarian
  TGI: > 100 µM
SN12C renal
  TGI: 82.9 µM
SNB-19 CNS
  TGI: > 100 µM
SNB-75 CNS
  TGI: > 100 µM
SR leukemia
  TGI: 87.7 µM
SW-620 colon
  TGI: > 100 µM
T-47D breast
  TGI: 72.4 µM
TK-10 renal
  TGI: > 100 µM
UACC-257 melanoma
  TGI: > 100 µM
UACC-62 melanoma
  TGI: 41.6 µM
UO-31 renal
  TGI: 79.2 µM

## Cc1nc(CN2CCCCC2)c(O)c(=O)[nH]1
786-0 renal
  TGI: > 100 µM
A498 renal
  TGI: > 100 µM
A549 NSCLC
  TGI: > 100 µM
ACHN renal
  TGI: > 100 µM
BT-549 breast
  TGI: > 100 µM
CAKI-1 renal
  TGI: > 100 µM
CCRF-CEM leukemia
  TGI: > 100 µM
COLO 205 colon
  TGI: > 100 µM
DU-145 prostate
  TGI: > 100 µM
EKVX NSCLC
  TGI: > 100 µM
HCT-116 colon
  TGI: > 100 µM
HCT-15 colon
  TGI: > 100 µM
HL-60(TB) leukemia
  TGI: > 100 µM
HOP-62 NSCLC
  TGI: > 100 µM
HOP-92 NSCLC
  TGI: > 100 µM
HS 578T breast
  TGI: > 100 µM
HT29 colon
  TGI: > 100 µM
IGROV1 ovarian
  TGI: > 100 µM
K-562 leukemia
  TGI: > 100 µM
KM12 colon
  TGI: > 100 µM
LOX IMVI melanoma
  TGI: > 100 µM
M14 melanoma
  TGI: > 100 µM
MALME-3M melanoma
  TGI: > 100 µM
MCF7 breast
  TGI: > 100 µM
MDA-MB-231 breast
  TGI: > 100 µM
MDA-MB-435
  TGI: > 100 µM
MDA-N
  TGI: > 100 µM
MOLT-4 leukemia
  TGI: > 100 µM
NCI-H226 lung
  TGI: > 100 µM
NCI-H23 lung
  TGI: > 100 µM
NCI-H460 lung
  TGI: > 100 µM
NCI-H522 lung
  TGI: > 100 µM
NCI/ADR-RES ovarian
  TGI: > 100 µM
OVCAR-3 ovarian
  TGI: > 100 µM
OVCAR-4 ovarian
  TGI: > 100 µM
OVCAR-5 ovarian
  TGI: > 100 µM
OVCAR-8 ovarian
  TGI: > 100 µM
PC-3 prostate
  TGI: > 100 µM
RPMI-8226 leukemia
  TGI: > 100 µM
RXF 393 renal
  TGI: > 100 µM
SF-268 CNS
  TGI: > 100 µM
SF-295 CNS
  TGI: > 100 µM
SF-539 CNS
  TGI: > 100 µM
SK-MEL-2 melanoma
  TGI: > 100 µM
SK-MEL-28 melanoma
  TGI: > 100 µM
SK-MEL-5 melanoma
  TGI: > 100 µM
SK-OV-3 ovarian
  TGI: > 100 µM
SN12C renal
  TGI: > 100 µM
SNB-19 CNS
  TGI: > 100 µM
SNB-75 CNS
  TGI: > 100 µM
SR leukemia
  TGI: > 100 µM
SW-620 colon
  TGI: > 100 µM
T-47D breast
  TGI: > 100 µM
TK-10 renal
  TGI: > 100 µM
U251 CNS
  TGI: > 100 µM
UACC-257 melanoma
  TGI: > 100 µM
UACC-62 melanoma
  TGI: > 100 µM
UO-31 renal
  TGI: > 100 µM
